Measured values as given in article PMC3118037 (International journal for parasitology, 2011).

What was measured:
[1] = test system: dispersed schistosome muscle fibres
[2] = test system: dispersed schistosome muscle fibres; conditions: ref Day et al., 1997; cited from earlier work

| Substance | activity in isolated muscle cell assays [1] | effect on individual / dispersed schistosome muscle cells (fibres) [2] |
| --- | --- | --- |
| GFVRIamide | lacked measurable activity |  |
| YIRF-OH |  | lack of effect |
| YIRFamide |  | potent myoexcitatory effect |
